Reference: publication PMC5522078, “Discovery and characterization of small molecules targeting the DNA-binding ETS domain of ERG in prostate cancer” (Oncotarget, 2017)
Like-named read-outs stand apart in the source and are kept apart here.

Legend:
[1] = test system: PNT1B-ERG cells; test: MTS cell viability assay, PNT1B-ERG; type: cell-based, human; settings: 72 h
Description: (§1) 3-(4,5-dimethylthiazol-2-yl)-5-(3-carboxymethoxyp henyl)-2-(4-sulfophenyl)-2H-tetrazolium, inner salt (MTS). Cells were seeded at a density of 3000 cells per well (except VCaP at 20,000/well) in 100 μL of appropriate media in 96 well culture dishes. Twenty four hours later, 100 μL of medium containing vehicle control or compounds. Each treatment was prepared in triplicate. After a 72 h treatment, cellular viability was assessed using CellTiter 96 ® Aqueous One Solution Cell Proliferation Assay reagent (Promega) according to the manufacturer's instructions. Values were normalized to the DMSO control.

[2] = test system: VCaP cells; test: MTS cell viability assay, VCaP; type: cell-based, human; settings: 72 h
Description: as §1

[3] = test system: PNT1B-ERG cells; test: Real time cell migration (xCELLigence), PNT1B cells; type: cell-based, human; settings: 5 μM
Description: Cell migration was monitored using CIM-16 migration plates via the xCELLigence platform (ACEA). FBS-supplemented media (160 μL) was added to the lower chamber of the plate and incubated at RT for 30 min. The upper chamber was then mounted and 30 μL of serum free media (SFM) was added to each well and left to equilibrate in the incubator for 1 h at 37°C. After the incubation, a background reading was taken for each well. […] Real time readings of cell index values were recorded initially every 5 min until the end of the experiment (48 hr).

[4] = test system: PNT1B-ERG or VCaP cells; test: Zebrafish yolk sac dissemination (xenograft metastasis) assay; type: in vivo; settings: 1 and 10 μM in water; 5 days; untreated 65 to 70%
Description: Research was carried in accordance with protocols compliant to the Canadian Council on Animal Care and with the approval of the Animal Care Committee at the University of British Columbia. The wildtype zebrafish strain was maintained in aquaria according to standard protocols. Embryos were generated by natural pair-wise matings and raised at 28.5°C on a 14 h light/10 h dark cycle in a 100 mm^2 petri dish containing aquarium water. Phenylthiourea (0.2 mM PTU, Sigma) was added to the embryos at 10 h post-fertilization (hpf) to prevent pigment formation. Yolk sac dissemination assay. PCa cell lines were fluorescently labelled the day before microinjection with 1.5 μM of CellTracker CM-Dil dye (Life Technologies) as per manufacturer's instructions. Wild-type embryos were dechorionated at 2 dpf. Following anaesthetization with tricane, approximately 50–70 cancer cells were microinjected into the yolk sac. Embryos were then transferred to 100 mm^2 plates that contained aquaria water with added PTU and VPC-18005, YK-4-279 or DMSO control. Embryos were visually assessed for presence of xenograph. […] Embryos were kept at 35°C for the duration of the experiment. Approximately, 50 fish were injected per cell line and metastasis was determined on Day 4 and 5 by observation using the Zeiss Axio Observer microscope (5X objective) controlled with Zen 2012 software. […]

[5] = test system: zebrafish embryos; test: Compound toxicity to zebrafish embryos; type: in vivo
[6] = test system: PNT1B-ERG cells; test: Real time growth assay (Incucyte confluence); type: cell-based, human; settings: 1, 5 or 15 µM; 168 h
Description: www.impactjournals.com/oncotarget/ Oncotarget Supplementary Materials
Discovery and characterization of small molecules targeting the DNA-binding ETS domain of ERG in prostate cancer […]
samples where less saturation of MS data is expected. This […]
and gives reasonable estimates when the use of MS […]
sulfoxide (DMSO) were diluted 1,000× into methanol
The (Gibco), then underwent APC BrdU Flow Kit protocol
Cells were analysed on a FACSCanto™
Data was analyzed using FlowJo
Eppendorf tubes. Saturated PBS samples were further software (TreeStar, USA). Biological replicates were diluted with an equal volume of PBS. Aliquots of these analysed statistically by Two-Way ANOVA. […]
the dark. Aliquots taken at later time points were vortex mixed for 1 h prior to sampling. MeOH and diluted PBS Proliferation/cell viability assay […]
were extracted with two volumes acetonitrile (ACN) and centrifuged at 20,000 g for 5 min.
After 24 h, plates were treated with vehicle control, […]
and a Quattro Premier (Waters).
2points/sec were collected with the PDA. The sampler expression datasets from PCa patients […]
represent the mean ± SEM of triplicate experiments. […]
post hoc test. […] The G0–G1 phase
Growth assay of PNT1B-ERG cells

[7] = Compound solubility and stability (LC-PDA-MS); type: physicochemical
Description: This […] […] Data was analyzed using FlowJo Eppendorf tubes. Saturated PBS samples were further software (TreeStar, USA). […] After 24 h, plates were treated with vehicle control, […] and a Quattro Premier (Waters). […] […] diluting stocks (50 mM in DMSO) 1000x in Methanol (standard), PBS, or media. Resulting solutions were clarified by centrifugation and an aliquot of the supernatant was extracted with 2 volumes acetonitrile. VPC-18005 solubility determined as fraction remaining as quantified by LC-PDA-MS versus the methanol solution as standard.

Compound: CC(C)c1ccc(C=N/N=C2\NC(=O)[C@@H](CC(=O)O)S2)cc1 (stereo in doubt) [VPC-18005, 2-((Z)-2-(((Z)-4-isopropylbenzylidene)hydrazono)-4-oxothiazolidin-5-yl)acetic acid]
- Effect on cell viability (MTS), PNT1B-ERG ([1]; 0.2–25 μM): did not decrease viability
- Effect on cell viability (MTS), VCaP ([2]; 0.2–25 μM): did not decrease viability
- Rate of migration of PNT1B-ERG cells ([3]; 24 h exposure, relative to vehicle): significantly reduced
- Percentage of fish with PNT1B-ERG or VCaP dissemination [4]: 20–30%
- Concentration at which embryos remained viable ([5]; 72 h): up to 50 μM
- Effect on proliferation / cell growth (real time cell analysis) [6]: did not suppress proliferation or induce cell death
- solubility at 1 h ([7]; cell culture media (RPMI + 5% charcoal stripped serum), plasma or biological fluid, kinetic from dmso stock, RPMI + 5% CSS, 50 mM DMSO stock diluted 1,000x): > 50 µM
- Media solubility ([7]; media): soluble in media
- Stability in media (fraction remaining) ([7]; media, 3 days, RT): 93%

Compound: COc1ccc(C(=O)CC2(O)C(=O)Nc3c(Cl)ccc(Cl)c32)cc1 (centres unmarked) [YK-4-279, reference compound]
- Doses with inhibition of cell viability (MTS), PNT1B-ERG [1]: ≥ 5 µM
- Doses with inhibition of cell viability (MTS), VCaP [2]: ≥ 5 µM
- Cytotoxicity in migration assay ([3]; PNT1B-MOCK and PNT1B-ERG cells): cytotoxicity in both cell lines
- Percentage of fish with PNT1B-ERG or VCaP dissemination [4]: 40–60%
- Concentrations at which embryos exhibited toxicity [5]: > 10 µM
- Effect on proliferation / cell growth (real time cell analysis) [6]: dose-dependent effect
- Media solubility [7]: soluble
- Stability in media (fraction remaining) ([7]; 72 h): 60%
